Results from patent publication US20240092758A1, “IMIDAZOLO INDAZOLE COMPOUNDS AS JAK INHIBITORS” (Theravance Biopharma R&D IP, LLC, priority 2021, published 2024).

Legend:
[1] = molecular target: JAK2 (Homo sapiens (Human), UniProt O60674); experiment: Biochemical JAK kinase assay (LanthaScreen), JAK2; details: for Ki: read-out: JAK2 pKi (converted)
In short: (§1)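 LanthaScreen format: phospho-STAT1 (pTyr701) detected with 2 nM Tb antibody after 10 mM EDTA quench. Kinase step used Km-level ATP and 200 nM STAT1 peptide, 1 h at ambient after 1 h pre-incubation. Inhibition fitted to IC50, reported as pKi.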

[2] = molecular target: JAK1 (Homo sapiens (Human), UniProt P23458); experiment: Biochemical JAK kinase assay (LanthaScreen), JAK1; details: for Ki: read-out: JAK1 pKi (converted)
Sequence of JAK1 (P23458 whole entry): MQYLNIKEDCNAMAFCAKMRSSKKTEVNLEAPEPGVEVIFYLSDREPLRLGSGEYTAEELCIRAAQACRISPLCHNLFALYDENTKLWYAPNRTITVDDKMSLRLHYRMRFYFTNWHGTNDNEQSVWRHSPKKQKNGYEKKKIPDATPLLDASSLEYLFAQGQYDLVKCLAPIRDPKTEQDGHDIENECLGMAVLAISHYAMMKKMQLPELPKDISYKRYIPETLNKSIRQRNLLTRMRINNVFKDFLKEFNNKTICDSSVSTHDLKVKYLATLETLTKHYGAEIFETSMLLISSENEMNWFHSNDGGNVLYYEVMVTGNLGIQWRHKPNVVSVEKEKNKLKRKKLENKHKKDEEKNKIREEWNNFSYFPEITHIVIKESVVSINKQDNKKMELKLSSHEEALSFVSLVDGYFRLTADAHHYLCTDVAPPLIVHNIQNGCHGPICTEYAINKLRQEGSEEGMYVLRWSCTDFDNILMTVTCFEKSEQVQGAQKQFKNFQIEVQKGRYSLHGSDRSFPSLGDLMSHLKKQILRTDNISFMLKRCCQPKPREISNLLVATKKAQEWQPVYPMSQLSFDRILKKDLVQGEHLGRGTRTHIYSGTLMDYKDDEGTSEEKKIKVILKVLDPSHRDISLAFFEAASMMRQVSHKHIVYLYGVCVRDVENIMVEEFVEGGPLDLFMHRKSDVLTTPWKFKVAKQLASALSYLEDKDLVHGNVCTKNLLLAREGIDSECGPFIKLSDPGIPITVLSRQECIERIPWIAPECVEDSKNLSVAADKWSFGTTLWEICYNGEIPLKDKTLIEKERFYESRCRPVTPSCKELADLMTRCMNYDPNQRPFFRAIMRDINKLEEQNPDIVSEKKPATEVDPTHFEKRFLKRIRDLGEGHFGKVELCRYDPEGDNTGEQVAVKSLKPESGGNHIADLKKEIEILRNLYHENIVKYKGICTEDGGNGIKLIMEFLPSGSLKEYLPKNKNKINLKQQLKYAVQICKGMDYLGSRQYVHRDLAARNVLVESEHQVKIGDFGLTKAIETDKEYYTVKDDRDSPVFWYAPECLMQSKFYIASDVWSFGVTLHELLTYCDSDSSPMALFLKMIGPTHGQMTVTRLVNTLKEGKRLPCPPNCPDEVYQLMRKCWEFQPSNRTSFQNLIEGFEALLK
In short: as §1

[3] = test system: IL-13 induced STAT6 phosphorylation in BEAS-2B human lung epithelial cells; experiment: Cellular JAKI potency assay (BEAS-2B); format: cell-based; details: Homo sapiens, BEAS-2B, BEAS-2B cells, read-out: BEAS2B pIC50 (converted)
In short: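 AlphaLISA SureFire detection of Tyr641 pSTAT6 in lysates gave IC50s (4-parameter fit, expressed as pIC50). Cells: human BEAS-2B, exposed 1 h at 37 °C to compound dose series at 0.1% DMSO, then 30 min to IL-13 added at 80 ng/mL in HEPES-buffered HBSS with BSA.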

Sequence of JAK2 (O60674 whole entry): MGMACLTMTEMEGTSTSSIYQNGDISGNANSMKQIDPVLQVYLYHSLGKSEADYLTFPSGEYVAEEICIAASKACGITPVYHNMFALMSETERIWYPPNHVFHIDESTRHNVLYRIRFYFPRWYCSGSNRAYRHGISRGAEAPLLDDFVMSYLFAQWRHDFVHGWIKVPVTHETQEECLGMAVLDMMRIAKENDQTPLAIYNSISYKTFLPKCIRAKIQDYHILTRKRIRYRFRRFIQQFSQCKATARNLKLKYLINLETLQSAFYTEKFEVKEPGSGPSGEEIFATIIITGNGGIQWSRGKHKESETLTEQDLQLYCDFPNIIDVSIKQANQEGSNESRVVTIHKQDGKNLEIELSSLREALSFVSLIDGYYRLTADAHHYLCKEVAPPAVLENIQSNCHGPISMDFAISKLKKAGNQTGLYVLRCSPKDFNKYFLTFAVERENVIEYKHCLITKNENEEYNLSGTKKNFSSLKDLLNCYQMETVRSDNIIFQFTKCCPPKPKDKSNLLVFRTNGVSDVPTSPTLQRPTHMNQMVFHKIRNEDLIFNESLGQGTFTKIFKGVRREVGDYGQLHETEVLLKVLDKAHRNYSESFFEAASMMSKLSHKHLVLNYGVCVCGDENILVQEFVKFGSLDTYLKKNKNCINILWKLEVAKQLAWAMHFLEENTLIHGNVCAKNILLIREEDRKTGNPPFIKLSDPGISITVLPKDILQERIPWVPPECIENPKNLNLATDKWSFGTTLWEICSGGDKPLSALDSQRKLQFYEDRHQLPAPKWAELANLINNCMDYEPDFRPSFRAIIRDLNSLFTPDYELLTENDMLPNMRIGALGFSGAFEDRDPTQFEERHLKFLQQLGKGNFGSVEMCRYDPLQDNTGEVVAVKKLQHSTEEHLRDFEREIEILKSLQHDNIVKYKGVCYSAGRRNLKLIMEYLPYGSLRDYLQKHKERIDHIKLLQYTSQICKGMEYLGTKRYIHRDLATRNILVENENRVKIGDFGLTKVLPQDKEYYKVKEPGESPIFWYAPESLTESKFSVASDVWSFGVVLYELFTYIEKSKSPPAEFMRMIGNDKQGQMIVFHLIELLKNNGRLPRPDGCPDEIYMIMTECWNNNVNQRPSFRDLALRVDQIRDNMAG

`CCCN1CC=C(c2c[nH]c(-c3n[nH]c4c(F)c(-c5ccc(O)cc5CC)ccc34)n2)C1` [Example 288] was tested, and the “JAK2 pKi” value [1] was “A (A represents a pKi value ≥10 (Ki≤0.1 nM))”, the “JAK1 pKi” value [2] was “A (A represents a pKi value ≥10 (Ki≤0.1 nM))” and the IC50 [3] was 3.16 to 10 nM.
For `CCc1cc(O)ccc1-c1ccc2c(-c3nc(C4=C[C@H](CO)N(C)C4)c[nH]3)n[nH]c2c1F` [Example 289], the “JAK2 pKi” value [1] was “A (A represents a pKi value ≥10 (Ki≤0.1 nM))”, the “JAK1 pKi” value [2] was “A (A represents a pKi value ≥10 (Ki≤0.1 nM))” and the IC50 [3] was 3.16 to 10 nM.
In the case of `CCc1cc(O)ccc1-c1ccc2c(-c3nc(C4=CCN(CC5CC5)C4)c[nH]3)n[nH]c2c1F` [Example 290], the “JAK2 pKi” value [1] is reported as “A (A represents a pKi value ≥10 (Ki≤0.1 nM))”, the “JAK1 pKi” value [2] is reported as “A (A represents a pKi value ≥10 (Ki≤0.1 nM))” and the IC50 [3] is reported as 3.16 to 10 nM.
With `CCc1cc(O)ccc1-c1ccc2c(-c3nc(C4=C[C@@H](C)NC4)c[nH]3)n[nH]c2c1F` [Example 292] the Ki [1] was 0.1 to 1 nM, the Ki [2] was 0.1 to 1 nM and the IC50 [3] was 3.16 to 10 nM.
With `CCc1cc(O)ccc1-c1ccc2c(-c3nc(C4=C(C(=O)OC)CNCC4)c[nH]3)n[nH]c2c1F` [Example 294] the “JAK2 pKi” value [1] was “A (A represents a pKi value ≥10 (Ki≤0.1 nM))”, the Ki [2] was 0.1 to 1 nM and the IC50 [3] was 3.16 to 10 nM.
For `CCc1cc(O)ccc1-c1ccc2c(-c3nc(C4=C(C(=O)OC)CCNC4)c[nH]3)n[nH]c2c1F` [Example 295], the “JAK2 pKi” value [1] was “A (A represents a pKi value ≥10 (Ki≤0.1 nM))”, the Ki [2] was 0.1 to 1 nM and the IC50 [3] was 3.16 to 10 nM.
`CCc1cc(O)ccc1-c1ccc2c(-c3nc(C4=CCN(Cc5cn[nH]c5)C4)c[nH]3)n[nH]c2c1` [Example 296] was tested, and the “JAK2 pKi” value [1] was “A (A represents a pKi value ≥10 (Ki≤0.1 nM))”, the “JAK1 pKi” value [2] was “A (A represents a pKi value ≥10 (Ki≤0.1 nM))” and the IC50 [3] was 10 to 31.6 nM.
`CCc1cc(O)ccc1-c1ccc2c(-c3nc(C4=CCN(CCCO)C4)c[nH]3)n[nH]c2c1` [Example 297] gave a Ki [1] of 0.1 to 1 nM, a Ki [2] of 0.1 to 1 nM and an IC50 [3] of 10 to 31.6 nM.
`CCOC(=O)C1=C(c2c[nH]c(-c3n[nH]c4c(F)c(-c5ccc(O)cc5CC)ccc34)n2)CNCC1` [Example 301] was tested, and the Ki [1] was 0.1 to 1 nM, the “JAK1 pKi” value [2] was “A (A represents a pKi value ≥10 (Ki≤0.1 nM))” and the IC50 [3] was 10 to 31.6 nM.
`CCOC(=O)C1=C(c2c[nH]c(-c3n[nH]c4cc(-c5ccc(O)cc5CC)ccc34)n2)CNCC1` [Example 302] was tested, and the Ki [1] was 0.1 to 1 nM, the “JAK1 pKi” value [2] was “A (A represents a pKi value ≥10 (Ki≤0.1 nM))” and the IC50 [3] was 10 to 31.6 nM.
With `CCc1cc(O)ccc1-c1ccc2c(-c3nc(C4=CCN(C5CCC5)C4)c[nH]3)n[nH]c2c1F` [Example 303] the “JAK2 pKi” value [1] was “A (A represents a pKi value ≥10 (Ki≤0.1 nM))”, the “JAK1 pKi” value [2] was “A (A represents a pKi value ≥10 (Ki≤0.1 nM))” and the IC50 [3] was 10 to 31.6 nM.
In the case of `CCc1cc(O)ccc1-c1ccc2c(-c3nc(C4=CCN(C5CCC5)[C@H]4CO)c[nH]3)n[nH]c2c1F` [Example 304], the “JAK2 pKi” value [1] is reported as “A (A represents a pKi value ≥10 (Ki≤0.1 nM))”, the “JAK1 pKi” value [2] is reported as “A (A represents a pKi value ≥10 (Ki≤0.1 nM))” and the IC50 [3] is reported as 10 to 31.6 nM.
For `CCc1cc(O)ccc1-c1ccc2c(-c3nc(C4=CCC(C)(C)NC4)c[nH]3)n[nH]c2c1F` [Example 306], the Ki [1] was 0.1 to 1 nM, the Ki [2] was 0.1 to 1 nM and the IC50 [3] was 10 to 31.6 nM.
`CCc1cc(O)ccc1-c1ccc2c(-c3nc(C4=CCN(CCC5(O)CCC5)C4)c[nH]3)n[nH]c2c1F` [Example 308] was tested, and the “JAK2 pKi” value [1] was “A (A represents a pKi value ≥10 (Ki≤0.1 nM))”, the Ki [2] was 0.1 to 1 nM and the IC50 [3] was 10 to 31.6 nM.
Compound `CCc1cc(O)ccc1-c1ccc2c(-c3nc(C4=C[C@H](CC(=O)OC(C)C)NC4)c[nH]3)n[nH]c2c1F` [Example 309] has a Ki [1] of 0.1 to 1 nM, a Ki [2] of 0.1 to 1 nM and an IC50 [3] of 10 to 31.6 nM.
`CCc1cc(O)ccc1-c1ccc2c(-c3nc(C4=C[C@H]([C@H](C)O)NC4)c[nH]3)n[nH]c2c1F` [Example 310] was tested, and the “JAK2 pKi” value [1] was “A (A represents a pKi value ≥10 (Ki≤0.1 nM))”, the Ki [2] was 0.1 to 1 nM and the IC50 [3] was 10 to 31.6 nM.
With `CCc1cc(O)ccc1-c1ccc2c(-c3nc(C4=CCN[C@@H](C)C4)c[nH]3)n[nH]c2c1F` [Example 311] the Ki [1] was 0.1 to 1 nM, the Ki [2] was 0.1 to 1 nM and the IC50 [3] was 10 to 31.6 nM.
Compound `CCc1cc(O)ccc1-c1ccc2c(-c3nc(C4=CCNC(CC)C4)c[nH]3)n[nH]c2c1` (stereo not drawn) [Example 312] has a Ki [1] of 0.1 to 1 nM, a Ki [2] of 0.1 to 1 nM and an IC50 [3] of 10 to 31.6 nM.
